Test results: patent US20210255193A1, “LYSINE REACTIVE PROBES AND USES THEREOF” (The Scripps Research Institute, priority 2017, published 2021)

Assays:
Assay in all cases: competitive isoTOP-ABPP
Format in all cases: binding
FAH Fumarylacetoacetase = target: T1, FAH Fumarylacetoacetase (Homo sapiens, UniProt P16930); conditions: for R value (DMSO/fragment) for probe 1 labeling: P16930_K241; for R value (DMSO/fragment) for probe 1 labeling / isoTOP-ABPP reactivity ratio at lysine P16930_K241 / isoTOP-ABPP ratio (R) at liganded lysine P16930_K241: 50 uM, in vitro; for R value (DMSO/fragment) for probe 1 labeling / isoTOP-ABPP reactivity ratio at lysine P16930_K241: 231 sol; for isoTOP-ABPP ratio (R) at liganded lysine P16930_K241: sol, 231
T1 construct: isoTOP-ABPP experiments performed in cell lysates (in vitro); endogenous in cells; host or cells: soluble proteome of human cancer cell lines (MDA-MB-231; Ramos and Jurkat also prepared)
T1 sequence (P16930 1-419): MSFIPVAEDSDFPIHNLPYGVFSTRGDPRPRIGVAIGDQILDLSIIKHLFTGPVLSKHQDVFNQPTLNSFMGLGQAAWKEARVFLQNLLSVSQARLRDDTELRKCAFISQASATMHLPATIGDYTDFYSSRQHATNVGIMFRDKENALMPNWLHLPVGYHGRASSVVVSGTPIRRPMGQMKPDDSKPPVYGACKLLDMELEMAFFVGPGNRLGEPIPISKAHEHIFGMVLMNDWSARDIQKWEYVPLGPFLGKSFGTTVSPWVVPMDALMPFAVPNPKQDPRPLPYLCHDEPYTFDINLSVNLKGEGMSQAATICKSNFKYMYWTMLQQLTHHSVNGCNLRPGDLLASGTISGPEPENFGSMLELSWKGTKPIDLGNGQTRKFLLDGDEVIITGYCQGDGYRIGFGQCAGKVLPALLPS
Method: (§1) In vitro covalent fragment treatment for isoTOP-ABPP. All compounds were made up as solutions in DMSO (100×) and were used at a final concentration of 50 μM for activated esters and 100 μM for guanidinylating agents. For each profiling sample, 0.5 ml of lysate was treated with 5 μl of the 100× compound stock solution or 5 μl of DMSO. Samples were treated with activated esters for
(§2) STP-alkyne labeling and click chemistry. For concentration-dependent reactivity measurements by isoTOP-ABPP, 0.5 ml proteome aliquots were treated at ambient temperature with 1 mM STP-alkyne 1 (5 μl of 100 mM stock in DMSO) and 0.1 mM STP alkyne 1 (5 μl of 10 mM stock in DMSO), respectively. For competitive isoTOP-ABPP, after in vitro fragment treatment (detailed above), the samples were labeled for 1 h at ambient temperature with 0.1 mM STP-alkyne 1 (5 μl of 10 mM stock in DMSO). Samples were conjugated by copper-mediated azide-alkyne cycloaddition (CuAAC) to either the light (1 mM STP-alkyne or fragment treated) or heavy (0.1 mM STP-alkyne or DMSO treated) TEV tags (10 μl of 5 mM stocks in DMSO, final concentration=100 μM) using tris(2-carboxyethyl)phosphine hydrochloride
(§3) R value calculation and processing. The ratios of light and heavy MS1 peaks for each unique peptide were quantified with a CIMAGE software using default parameters (3 MS1 acquisitions per peak and signal to noise threshold set to 2.5). For reactivity measurements by isoTOP-ABPP, the R value was calculated from the ratio of MS1 peak areas, comparing the 1 mM STP alkyne sample (light TEV tag) with the 0.1 mM STP alkyne sample (heavy TEV tag). For competitive isoTOP-ABPP, the R value was calculated from the ratio of MS1 peak areas, comparing the DMSO treated sample (heavy TEV tag) with the compound treated sample (light TEV tag). […] Ratios for unique peptide entries are calculated for each experiment; overlapping peptides with the same modified lysine (for example, different charge states, MudPIT chromatographic steps or tryptic termini) are grouped together and the median ratio is reported as the final ratio (R). The peptide ratios reported by CIMAGE were further filtered to ensure the removal or correction of low-quality ratios in each individual data set. The quality filters applied were the following: removal of half tryptic peptides; for ratios with high standard deviations from the median (90% of the median or above) the lowest ratio was taken instead of the median; removal of peptides with R=20 and only a single MS2 event triggered during the elution of the parent ion; manual annotation of all the peptides with ratios of 20, removing any peptides with low quality elution profiles that remained after the previous curation steps (only done for competitive isoTOP-ABPP).
(§4) Cross-data processing for fragment screening. For compound treated samples, biological replicates of the same condition were averaged, if the standard deviation was below 60% of the mean; otherwise, for lysines with at least one R value <4 for a particular compound, the lowest value of the ratio set was taken. For lysines, where all R values for a particular compound were ≥4, the average was reported. For peptides containing several possible modified lysines, the lysine with the highest number of quantification events was used for analysis and the remaining, redundant peptides were reported as alternative modification sites. Peptides included in the aggregate dataset (those used for further bioinformatics and statistical analyses) were required to have been quantified in 2 experiments for competitive isoTOP-ABPP. Lysines were categorized as liganded, if they had at least one ratio R≥4 (hit fragments). For liganded lysines with R=20 for all liganding events, lysines were required to have been quantified with R=20 in two separate experiments and were further required to have been quantified with R<20 in one additional experiment.

[1] = target: T2, RPL10 60S ribosomal protein L10 (Homo sapiens, UniProt P27635); conditions: for R value (DMSO/fragment) for probe 1 labeling: P27635_K121; for R value (DMSO/fragment) for probe 1 labeling / isoTOP-ABPP reactivity ratio at lysine P27635_K121 / isoTOP-ABPP ratio (R) at liganded lysine P27635_K121: 50 uM, in vitro; for R value (DMSO/fragment) for probe 1 labeling / isoTOP-ABPP reactivity ratio at lysine P27635_K121: 231 sol; for isoTOP-ABPP ratio (R) at liganded lysine P27635_K121: sol, 231
T2 construct: isoTOP-ABPP experiments performed in cell lysates (in vitro); endogenous in cells; host or cells: soluble proteome of human cancer cell lines (MDA-MB-231; Ramos and Jurkat also prepared)
Method: as §1, §2, §3, §4

[2] = target: T3, GTPBP3 tRNA modification GTPase GTPBP3, mitochondrial (Homo sapiens, UniProt Q969Y2); conditions: 50 uM, in vitro; for R value (DMSO/fragment) for probe 1 labeling: Q969Y2_K492; for R value (DMSO/fragment) for probe 1 labeling / isoTOP-ABPP reactivity ratio at lysine Q969Y2_K492: 231 sol; for isoTOP-ABPP ratio (R) at liganded lysine Q969Y2_K492: sol, 231
T3 construct: isoTOP-ABPP experiments performed in cell lysates (in vitro); endogenous in cells; host or cells: soluble proteome of human cancer cell lines (MDA-MB-231; Ramos and Jurkat also prepared)
T3 sequence (Q969Y2 21-492): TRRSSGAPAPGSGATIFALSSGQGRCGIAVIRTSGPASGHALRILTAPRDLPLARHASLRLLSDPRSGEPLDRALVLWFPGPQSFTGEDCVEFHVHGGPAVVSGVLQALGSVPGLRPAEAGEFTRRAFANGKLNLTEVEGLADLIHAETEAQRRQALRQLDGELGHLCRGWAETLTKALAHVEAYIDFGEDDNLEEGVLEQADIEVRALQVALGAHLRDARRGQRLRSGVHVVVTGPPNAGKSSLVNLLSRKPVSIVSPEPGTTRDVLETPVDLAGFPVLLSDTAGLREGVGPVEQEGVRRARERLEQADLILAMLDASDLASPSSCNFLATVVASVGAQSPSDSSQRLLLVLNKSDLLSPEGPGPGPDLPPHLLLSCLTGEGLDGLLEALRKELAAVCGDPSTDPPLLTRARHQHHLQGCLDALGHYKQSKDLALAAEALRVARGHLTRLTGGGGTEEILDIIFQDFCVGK
Method: as §1, §2, §3, §4

O=C(CCc1cn(-c2ccccc2)nc1-c1ccccc1)Oc1c(F)c(F)c(F)c(F)c1F [fragment 19, Pentafluorophenyl 3-(1,3-diphenyl-1H-pyrazol-4-yl)propanoate]
R value (DMSO/fragment) for probe 1 labeling (FAH Fumarylacetoacetase): 2.5
R value (DMSO/fragment) for probe 1 labeling [1]: 0.9

O=C(Oc1c(F)c(F)c(F)c(F)c1F)C(c1ccccc1)c1ccccc1 [fragment 20, Pentafluorophenyl 2,2-diphenylacetate]
R value (DMSO/fragment) for probe 1 labeling (FAH Fumarylacetoacetase): 1.0
R value (DMSO/fragment) for probe 1 labeling [1]: 0.7
R value (DMSO/fragment) for probe 1 labeling [2]: 1.1

O=C(Oc1c(F)c(F)c(F)c(F)c1F)c1cc(C(F)(F)F)cc(C(F)(F)F)c1 [fragment 21, Pentafluorophenyl 3,5-bis(trifluoromethyl)benzoate]
R value (DMSO/fragment) for probe 1 labeling (FAH Fumarylacetoacetase): 2.0
R value (DMSO/fragment) for probe 1 labeling [1]: 0.8
R value (DMSO/fragment) for probe 1 labeling [2]: 1.3

Cn1cc(CC(=O)Oc2c(F)c(F)c(F)c(F)c2F)c2ccccc21 [fragment 22, Pentafluorophenyl 2-(1-methyl-1H-indol-3-yl)acetate]
R value (DMSO/fragment) for probe 1 labeling (FAH Fumarylacetoacetase): 3.0
R value (DMSO/fragment) for probe 1 labeling [1]: 0.9
R value (DMSO/fragment) for probe 1 labeling [2]: 1.1

COc1cc(CCC(=O)Oc2c(F)c(F)c(F)c(F)c2F)cc(OC)c1OC [fragment 23, Pentafluorophenyl 3-(3,4,5-trimethoxyphenyl)propanoate]
R value (DMSO/fragment) for probe 1 labeling (FAH Fumarylacetoacetase): 2.8

O=C(Oc1c(F)c(F)c(F)c(F)c1F)C1CCN(C(=O)OCc2ccccc2)CC1 [fragment 24, 1-Benzyl 4-(pentafluorophenyl) piperidine-1,4-dicarboxylate]
isoTOP-ABPP reactivity ratio at lysine P16930_K241 (FAH Fumarylacetoacetase): 1.1

O=C(Oc1c(F)c(F)c(F)c(F)c1F)c1ccc2ccccc2n1 [fragment 25, Pentafluorophenyl quinoline-2-carboxylate]
isoTOP-ABPP reactivity ratio at lysine P16930_K241 (FAH Fumarylacetoacetase): 5.2

O=C(CCc1coc2cc(F)ccc2c1=O)Oc1c(F)c(F)c(F)c(F)c1F [fragment 26, Pentafluorophenyl 3-(7-fluoro-4-oxo-4H-chromen-3-yl)propanoate]
isoTOP-ABPP reactivity ratio at lysine P16930_K241 (FAH Fumarylacetoacetase): 5.0
isoTOP-ABPP reactivity ratio at lysine P27635_K121 [1]: 0.9
isoTOP-ABPP reactivity ratio at lysine Q969Y2_K492 [2]: 5.0

O=C(CN1C(=O)c2ccccc2C1=O)Oc1c(F)c(F)c(F)c(F)c1F [fragment 27, Pentafluorophenyl 2-(1,3-dioxoisoindolin-2-yl)acetate]
isoTOP-ABPP reactivity ratio at lysine P16930_K241 (FAH Fumarylacetoacetase): 1.8
isoTOP-ABPP reactivity ratio at lysine Q969Y2_K492 [2]: 1.6

CCn1cc(C(=O)Oc2c(F)c(F)c(F)c(F)c2F)c(=O)c2ccc(C)nc21 [fragment 28, Pentafluorophenyl 1-ethyl-7-methyl-4-oxo-1,4-dihydro-1,8-naphthyridine-3-carboxylate]
isoTOP-ABPP reactivity ratio at lysine P16930_K241 (FAH Fumarylacetoacetase): 2.5

O=C(CCc1cn(-c2ccccc2)nc1-c1ccccc1)Oc1ccc([N+](=O)[O-])cc1[N+](=O)[O-] [fragment 29, 2,4-Dinitrophenyl 3-(1,3-diphenyl-1H-pyrazol-4-yl)propanoate]
isoTOP-ABPP reactivity ratio at lysine P16930_K241 (FAH Fumarylacetoacetase): 1.7
isoTOP-ABPP reactivity ratio at lysine P27635_K121 [1]: 1.4
isoTOP-ABPP reactivity ratio at lysine Q969Y2_K492 [2]: 20.0

O=C(Oc1ccc([N+](=O)[O-])cc1[N+](=O)[O-])C(c1ccccc1)c1ccccc1 [fragment 30, 2,4-Dinitrophenyl 2,2-diphenylacetate]
isoTOP-ABPP reactivity ratio at lysine P16930_K241 (FAH Fumarylacetoacetase): 2.7
isoTOP-ABPP reactivity ratio at lysine P27635_K121 [1]: 1.1
isoTOP-ABPP reactivity ratio at lysine Q969Y2_K492 [2]: 1.5

O=C(Oc1ccc([N+](=O)[O-])cc1[N+](=O)[O-])c1cc(C(F)(F)F)cc(C(F)(F)F)c1 [fragment 31, 2,4-Dinitrophenyl 3,5-bis(trifluoromethyl)benzoate]
isoTOP-ABPP reactivity ratio at lysine P16930_K241 (FAH Fumarylacetoacetase): 20.0
isoTOP-ABPP reactivity ratio at lysine Q969Y2_K492 [2]: 1.4

Cn1cc(CC(=O)Oc2ccc([N+](=O)[O-])cc2[N+](=O)[O-])c2ccccc21 [fragment 32, 2,4-Dinitrophenyl 2-(1-methyl-1H-indol-3-yl)acetate]
isoTOP-ABPP reactivity ratio at lysine P16930_K241 (FAH Fumarylacetoacetase): 2.2
isoTOP-ABPP reactivity ratio at lysine P27635_K121 [1]: 1.7
isoTOP-ABPP reactivity ratio at lysine Q969Y2_K492 [2]: 1.8

COc1cc(CCC(=O)Oc2ccc([N+](=O)[O-])cc2[N+](=O)[O-])cc(OC)c1OC [fragment 33, 2,4-Dinitrophenyl 3-(3,4,5-trimethoxyphenyl)propanoate]
isoTOP-ABPP reactivity ratio at lysine P16930_K241 (FAH Fumarylacetoacetase): 1.7

O=C(Oc1ccc([N+](=O)[O-])cc1[N+](=O)[O-])c1ccc2ccccc2n1 [fragment 35, 2,4-Dinitrophenyl quinoline-2-carboxylate]
isoTOP-ABPP ratio (R) at liganded lysine P16930_K241 (FAH Fumarylacetoacetase): 3.4
isoTOP-ABPP ratio (R) at liganded lysine P27635_K121 [1]: 0.6

O=C(Oc1ccc([N+](=O)[O-])cc1[N+](=O)[O-])c1ccccc1Nc1cccc(C(F)(F)F)c1 [fragment 40, 2,4-Dinitrophenyl 2-((3-(trifluoromethyl)phenyl)amino)benzoate]
isoTOP-ABPP ratio (R) at liganded lysine P16930_K241 (FAH Fumarylacetoacetase): 1.4
isoTOP-ABPP ratio (R) at liganded lysine Q969Y2_K492 [2]: 0.6

CC(C)(C)OC(=O)NCCCC(=O)Oc1ccc([N+](=O)[O-])cc1[N+](=O)[O-] [fragment 41, 2,4-Dinitrophenyl 4-((tert-butoxycarbonyl)amino)butanoate]
isoTOP-ABPP ratio (R) at liganded lysine P16930_K241 (FAH Fumarylacetoacetase): 1.4
isoTOP-ABPP ratio (R) at liganded lysine P27635_K121 [1]: 0.8

O=C(Oc1ccc([N+](=O)[O-])cc1[N+](=O)[O-])C(c1ccccc1)(c1ccccc1)c1ccccc1 [fragment 42, 2,4-Dinitrophenyl 2,2,2-triphenylacetate]
isoTOP-ABPP ratio (R) at liganded lysine P16930_K241 (FAH Fumarylacetoacetase): 0.9
isoTOP-ABPP ratio (R) at liganded lysine Q969Y2_K492 [2]: 0.9

COC(=O)NC(=NC(=O)OCC1c2ccccc2-c2ccccc21)n1cccn1 [fragment 49, N-Methoxycarbonyl-N′-9-fluorenylmethoxycarbonyl-pyrazole-1-carboxamidine]
isoTOP-ABPP ratio, lysine P16930_K241 (FAH Fumarylacetoacetase; 100 uM_231_sol_in vitro): 1.3
isoTOP-ABPP ratio, lysine P27635_K121 ([1]; 100 uM_231_sol_in vitro): 1.8

NC(=O)c1cc(C(F)(F)F)cc(C(F)(F)F)c1 [fragment 51, reference compound]
isoTOP-ABPP ratio, lysine P16930_K241 (FAH Fumarylacetoacetase; 50 uM_231_sol_in vitro): 0.9
